Data published in PubChem BioAssay (NCI).
Where “and” joins values, the source holds several entries; their conditions need not be identical. Equal values may be shown once.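 Interpolation was linear, between the two tested concentrations surrounding the appropriate level; five concentrations were tested over 48 hours in 96-well plates. The concentration for 50% growth inhibition is given as GI50. TGI is the concentration that stops growth completely.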

Assays:
Assay in all cases: NCI anticancer screen, dose series, 48 h
NCI-H460 lung = tested on: NCI-H460 lung
RXF 393 renal = tested on: RXF 393 renal
NCI-H226 lung = tested on: NCI-H226 lung
EKVX NSCLC = tested on: EKVX NSCLC
KM12 colon = tested on: KM12 colon
MDA-MB-231 breast = tested on: MDA-MB-231 breast
NCI/ADR-RES ovarian = tested on: NCI/ADR-RES ovarian
M14 melanoma = tested on: M14 melanoma
MDA-MB-435 = tested on: MDA-MB-435
MDA-N = tested on: MDA-N

Row | Structure (SMILES) | TGI (NCI-H460 lung) [µM] | TGI (RXF 393 renal) [µM] | TGI (NCI-H226 lung) [µM] | TGI (EKVX NSCLC) [µM] | TGI (KM12 colon) [µM] | TGI (MDA-MB-231 breast) | TGI (NCI/ADR-RES ovarian) [µM] | TGI (M14 melanoma) [µM] | TGI (MDA-MB-435) | TGI (MDA-N) | GI50 (KM12 colon) [µM] | GI50 (NCI/ADR-RES ovarian) [µM] | GI50 (MDA-MB-231 breast) [µM] | GI50 (MDA-N) [µM]
1 | O=C(O)c1nc(-c2ccccc2)[nH]c1C(=O)O | 29.2 | 26.5 | 33.1 | 33 | 14.6 | 11.3 µM | > 82.8 | 25.2 | 21.3 µM | 24.4 µM | – | – | – | –
2 | Cc1c(NC(=O)CSC(=S)N2CCN(Cc3ccccc3)CC2)c(=O)n(-c2ccccc2)n1C | > 100 | > 100 | > 100 | > 100 | > 100 | > 100 µM | > 100 | > 100 | > 100 µM | > 100 µM | – | – | – | –
3 | CC(C)C(OC(=O)c1ccc(NCc2cc(O)ccc2O)cc1)C(C)C | 14.7 | 1.65 | 5.47 | 5.32 | 11.1 | 9.15 µM | 6.14 | 6.93 | 5.59 µM | 12.9 µM | – | – | – | –
4 | COC(=O)C(Cc1ccccc1)NP(=O)(O)OCC1OC(n2cc(F)c(=O)[nH]c2=O)CC1O (centres undefined) | > 100 | > 100 | > 100 | > 100 | > 100 | > 100 µM | > 100 | > 100 | > 100 µM | > 100 µM | – | – | – | –
5 | CCOC(=O)c1nc2ccc(C(F)(F)F)cc2nc1Oc1cc(OC)cc(OC)c1 | > 100 | > 100 | > 100 | > 100 | > 100 | > 100 µM | > 100 | > 100 | > 100 µM | > 100 µM | – | – | – | –
6 | Nc1ncnc2c1nnn2C1CCC(CP(=O)(O)O)C1 (centres undefined) | > 100 | > 100 | > 100 | > 100 | > 100 | > 100 µM | > 100 | > 100 | > 100 µM | > 100 µM | – | – | – | –
7 | N#Cc1ccccc1-c1nc2c3c(c(N)ccc3n1)C(=O)c1ccccc1-2 | > 100 | > 100 | > 100 | > 100 | > 100 | > 100 µM | > 100 | > 100 | > 100 µM | > 100 µM | – | – | – | –
8 | COC1OC2COC1(OC)C1OC(C)(C)OC21 (centres undefined) | > 100 | > 100 | > 100 | > 100 | > 100 | > 100 µM | > 100 | > 100 | > 100 µM | > 100 µM | – | – | – | –
9 | O=C1/C(=N\S(=O)(=O)c2ccccc2)C([n+]2ccc(Cc3ccccc3)cc2)=C([O-])c2ccccc21 | 2.22 | 6.59 | 3.73 | 3.27 | 4.7 | 9.89 µM | 18.3 | 2.68 | 0.377 µM | 0.346 µM | – | – | – | –
10 | CC1(C)CC(C)(C)C1=NNC(N)=O | > 100 | > 100 | > 100 | > 100 | > 100 | > 100 µM | > 100 | > 100 | > 100 µM | > 100 µM | – | – | – | –
11 | CC(=O)Nc1ccc(OC2=CCN(C)CC2)cc1 | > 100 | > 100 | > 100 | > 100 | > 100 | > 100 µM | > 100 | > 100 | > 100 µM | > 100 µM | – | – | – | –
12 | O=C(Nc1ccccc1)N(CCCCN(Cc1ccccc1)C(=O)Nc1ccccc1)Cc1ccccc1 | > 100 | > 100 | > 100 | > 100 | > 100 | > 100 µM | > 100 | > 100 | > 100 µM | > 100 µM | – | – | – | –
13 | CC(=O)Oc1c2oc3ccc(Cl)cc3c(=O)c2c(O)c2ccsc12 | > 100 | > 100 | > 100 | > 100 | > 100 | > 100 µM | > 100 | > 100 | > 100 µM | > 100 µM | – | – | – | –
14 | O=C(OCCN=c1c2ccccc2ccc2ccccc12)c1ccc([N+](=O)[O-])cc1 | > 100 | > 100 | > 100 | > 100 | > 100 | > 100 µM | > 100 | > 100 | > 100 µM | > 100 µM | – | – | – | –
15 | O=C(O)c1ccn(-c2cccc(-n3ccc(C(=O)O)n3)n2)n1 | > 100 | > 100 | > 100 | > 100 | > 100 | > 100 µM | > 100 | > 100 | > 100 µM | > 100 µM | – | – | – | –
16 | CC1(O)CC(=O)c2c(cc3ccc(-c4c5c(c(O)c6c(O)cccc46)C(=O)CC(C)(O)C5)c(O)c3c2O)C1 (centres undefined) | 5.64 | 1.11 | 2.16 | 4.35 | 0.24 | 3.93 µM | 6.63 | 7.11 | 1.97 µM | 14.2 µM | – | – | – | –
17 | COC(=O)c1c(O)ccc2c1c1c(n2Cc2cccc(C)c2)C(=O)c2ccccc2C1=O | 16.7 | 26.1 | 38.8 | 37.9 | 28 | 35.3 µM | 25 | 32.3 | 23.3 µM | 33.7 µM | – | – | – | –
18 | CCOC(=O)c1cnc2oc3ccc(O)cc3c2c1-c1ccccc1 | > 100 | > 100 | > 100 | > 100 | > 100 | 84.5 µM | 73.7 | > 100 | > 100 µM | > 100 µM | 5.11 | 4.77 | – | –

Row | Structure (SMILES) | TGI (NCI-H460 lung) [µM] | TGI (RXF 393 renal) [µM] | TGI (NCI-H226 lung) [µM] | TGI (EKVX NSCLC) [µM] | TGI (KM12 colon) [µM] | TGI (MDA-MB-231 breast) | TGI (NCI/ADR-RES ovarian) [µM] | TGI (M14 melanoma) [µM] | TGI (MDA-MB-435) | TGI (MDA-N) | GI50 (KM12 colon) [µM] | GI50 (NCI/ADR-RES ovarian) [µM] | GI50 (MDA-MB-231 breast) [µM] | GI50 (MDA-N) [µM]
19 | C=C(CO[Si](C)(C)C(C)(C)C)C(C)=O | > 100 | 29 | > 100 | > 100 | > 100 | 46.6 µM | 99.6 | 27.5 | 36.3 µM | 32.3 µM | – | – | – | –
20 | CCCCCCCCCCCCCCCCCCNc1ccn(C2OC(COP(=O)(O)OCC3OC(n4cc(F)c(NCCCCCCCCCCCCCCCCCC)nc4=O)CC3O)C(O)C2O)c(=O)n1 (centres undefined) | > 100 | > 100 | > 100 | > 100 | > 100 | > 100 µM | > 100 | > 100 | > 100 µM | > 100 µM | – | – | – | –
21 | CCCC(=O)NC(Nc1ccc(S(=O)(=O)Nc2nc(C)cc(C)n2)cc1)(C(F)(F)F)C(F)(F)F | > 100 | > 100 | > 100 | > 100 | > 100 | > 100 µM | > 100 | > 100 | > 100 µM | > 100 µM | – | – | – | –
22 | O=c1cc(N2CCN(c3cc(=O)n4ccccc4n3)CC2)oc2ccccc12 | > 100 | > 100 | > 100 | > 31.6 | > 68.5 | > 100 µM | > 100 | > 100 | > 100 µM | > 100 µM | – | – | – | –
23 | COc1cc(/C=C2\Sc3scc(-c4cccc([N+](=O)[O-])c4)[n+]3C2=O)cc(OC)c1OC | 24.2 | 26.9 | 34.3 | 26.5 | 41.6 | 25.2 µM | > 100 | 23.9 | 25.2 µM | 27.1 µM | – | – | – | –
24 | C#CCSC(C=C=C)P(=O)(OC(C)C)OC(C)C (centres undefined) | > 100 | > 100 | > 100 | > 100 | > 100 | > 100 µM | > 100 | > 100 | > 100 µM | > 100 µM | – | – | – | –
25 | O=c1[nH]nc(-c2ccccc2)n1/N=C/c1cccnc1 | > 100 | > 100 | > 100 | > 100 | > 100 | > 100 µM | > 100 | > 100 | > 100 µM | > 100 µM | – | – | – | –
26 | COC(=O)C(CSSC[C@H](N/C(C)=C/C(C)=O)C(=O)OC)N/C(C)=C/C(C)=O (some centres undefined) | > 100 | 52.7 | > 100 | 41.4 | > 100 | > 100 µM | > 100 | > 100 | > 100 µM | > 100 µM | – | – | – | –
27 | COC(=O)c1cc2ccc(OC(C)=O)c(OC(C)=O)c2cn1 | 39.7 | 33.4 | 41.7 | 38.1 | 33.6 | 7.12 µM and 42.9 µM | 70 | 34.3 | 3.16 µM and 3.26 µM | 2.93 µM and 3.68 µM | – | 27.3 | 17.7 | 2.03
28 | CC(=O)c1c(C(F)(F)F)n([O-])c2cc(Cl)c(Cl)cc2[n+]1=O | 0.852 | 2.51 | 3.08 | 2.89 | 0.403 | 2.99 µM | 4.85 | 2.61 | 2.67 µM | 2.41 µM | – | – | – | –
29 | CCN(CC)c1ccc2cc(C(=O)Nc3cccc4ccccc34)c(=N)oc2c1 | > 100 | > 100 | > 100 | > 100 | > 100 | > 100 µM | > 100 | > 100 | > 100 µM | > 100 µM | – | – | – | –
30 | CN1CCN(CCCBr)CC1 | > 100 | > 100 | > 100 | > 100 | > 100 | > 100 µM | > 100 | > 100 | > 100 µM | > 100 µM | – | – | – | –
31 | CC1CC/C(=C\c2ccc(Cl)cc2)C2OC(N)=C(C#N)C(c3ccc(Cl)cc3)=C12 (centres undefined) | – | 71.8 | 27.1 | 22.7 | 28.8 | 23.7 µM | 25.9 | 39 | 44.2 µM | 32.2 µM | – | – | – | –
32 | O=c1oc2ccccc2cc1-c1cn2cc(Cl)ccc2n1 | 13.6 | 9.48 | > 57.3 | > 100 | 12.1 | 23.1 µM | 2.73 | 15.2 | 0.138 µM | 0.428 µM | – | – | – | –
33 | CCOC(=O)c1c(N2CCCC2)ncn(Cc2ccccc2)c1=S | > 100 | > 100 | > 100 | > 100 | > 100 | > 100 µM | > 100 | > 100 | > 100 µM | > 100 µM | – | – | – | –
34 | COc1ccc(NC(C)=O)cc1N1C(=O)/C(=C\c2cc(OC)c(OC)c(OC)c2)SC1c1ccccc1 (centres undefined) | > 100 | > 100 | > 100 | > 100 | > 100 | > 100 µM | > 100 | > 100 | > 100 µM | 72.3 µM | – | – | – | –
35 | Nc1ccccc1CC(O)C(=O)O (centres undefined) | > 100 | > 100 | > 100 | > 100 | > 100 | > 100 µM | > 100 | > 100 | > 100 µM | > 100 µM | – | – | – | –
36 | C/C=C(/C)C(=O)O[C@H](C[C@@H](C)[C@H]1CC(c2ccoc2)OC1=O)[C@@]1(C)C(=O)CCC2O[C@]21C (some centres undefined) | > 100 | > 100 | > 100 | > 100 | > 100 | > 100 µM | > 100 | > 100 | > 100 µM | > 100 µM | – | – | – | –
